According to patent publication US20240216352A1 (priority 2022, published 2024):

Legend:
healthy participants = assay: Phase 1 Part A single ascending dose (SAD) and FE/pH cohort: safety, blood pressure; type: in vivo, human; details: for Mean SBP: in mmHg (unit assumed); for Maximum of mean (±SD) reduction in DBP from baseline / Maximum of mean (±SD) reduction in SBP from baseline / Time of maximum mean DBP reduction / Time of maximum mean SBP reduction: within 12 h post dose
Description: (§1) The study was performed in 3 parts in 112 healthy male and female participants, including 24 Japanese participants. Female participants were to be not of childbearing potential. The present study was designed to evaluate the safety and tolerability, PK, and exploratory PD of an oral suspension of Compound A. Parts A and B (Cohort B1 only) enrolled healthy participants and was conducted at a site in The Netherlands and Part B (Cohort B2 to B5) enrolled healthy non-Japanese participants and was conducted at a site in the United Kingdom (UK). Part C enrolled healthy Japanese participants and was conducted at the same site in the UK.
Part A was an SAD study in a planned number of 6 sequential dose escalation cohorts (3, 10, 30, 100, 150, or 250 mg) of 8 healthy participants (6 active+2 placebo) each, under fasted conditions. Eligible participants in Part A (excluding those in Cohort A7 [food effect (FE)/pH cohort]) received a single administration of study drug (Compound A or placebo) under fasted conditions. In Cohort A1 to Cohort A6, sentinel dosing was employed (1 active+1 placebo, followed after 48 hours by the remaining participants of the cohort [5 active+1 placebo]). […] In addition to the 6 ascending dose cohorts, a cohort of 6 healthy participants (Cohort A7; 6 active, 100 mg Compound A) was included to assess the effect of food and pH on the bioavailability of Compound A in a 3-period, open-label, fixed-sequence, crossover design (FE/pH cohort).
(§2) Physical examinations, vital sign measurements (including orthostasis testing in Cohort A6, Cohort B3 to B5, and C1 to C3 at selected time points), 12-lead electrocardiogram (ECG), and clinical laboratory evaluations were performed at selected times throughout the study. In addition, Holter monitoring was performed for the first 24 hours post dose on Day 1 in Part A (not in FE/pH cohort), and also for the first 24 hours post dose on Day 1 and Day 14 in Parts B and C. Participants were closely monitored for adverse events (AEs). Blood samples were collected for up to 14 days (follow-up visit) after (last) study drug administration for PK analysis. In addition, blood and urine were collected for exploratory biomarker assessments and for biobanking of samples for potential analyses. Urine was collected for potential PK analysis for up to 96 hours after a single dose of Compound A or placebo was administered in the SAD part, and for up to 24 hours after the first (morning) dose of study drug on Day 1 and for up to 24 hours after the last (morning) dose of study drug on Day 14 in the MAD parts.

[1] = tested on: healthy Japanese participants; assay: Phase 1 Part C MAD Japanese cohorts: blood pressure; type: in vivo, human
Description: as §1
Part C was a MAD study in 3 sequential dose escalation cohorts (30 mg BID, 60 mg BID, and 90 mg BID) of 8 healthy Japanese participants (6 active+2 placebo) each. Eligible participants in Cohorts C1 to C3 received study drug (Compound A or placebo) administered orally for 14 days.
as §2

[2] = 100 mg Fasted + Famotidine, D 1 2 h
[3] = 100 mg Fasted + Famotidine, D 1 4 h
[4] = 100 mg Fasted + Famotidine, D 1 8 h
[5] = 100 mg Fasted + Famotidine, D 2 24 h
[6] = 100 mg fasted + famotidine (A7)

Structure (SMILES): CCCN(C)C(=O)OCc1c(-c2ccc(O[C@H]3CCC[C@H](C(=O)O)C3)c(C)n2)nnn1C [Compound A, (1S,3S)-3-((2-methyl-6-(1-methyl-5-(((methyl(propyl)carbamoyl)-oxy)methyl)-1H-1,2,3-triazol-4-yl)pyridin-3-yl)oxy)cyclohexane-1-carboxylic acid]
- Mean DBP (healthy participants; [2]): 67.2 mmHg
- Mean SBP (healthy participants; [2]): 111.3
- Mean DBP (healthy participants; [3]): 65.3 mmHg
- Mean SBP (healthy participants; [3]): 106.5
- Mean DBP (healthy participants; [4]): 63.2 mmHg
- Mean SBP (healthy participants; [4]): 105.0
- Mean DBP (healthy participants; [5]): 71.7 mmHg
- Mean SBP (healthy participants; [5]): 118.7
- Mean DBP (healthy participants; 100 mg Fasted, D 1 2 h): 67.2 mmHg
- Mean SBP (healthy participants; 100 mg Fasted, D 1 2 h): 107.5
- Mean DBP (healthy participants; 100 mg Fasted, D 1 4 h): 64.2 mmHg
- Mean SBP (healthy participants; 100 mg Fasted, D 1 4 h): 103.8
- Mean DBP (healthy participants; 100 mg Fasted, D 1 8 h): 63 mmHg
- Mean SBP (healthy participants; 100 mg Fasted, D 1 8 h): 98.0
- Mean DBP (healthy participants; 100 mg Fasted, D 2 24 h): 69.3 mmHg
- Mean SBP (healthy participants; 100 mg Fasted, D 2 24 h): 115.2
- Mean DBP (healthy participants; 100 mg Fed, D 1 2 h): 57.2 mmHg
- Mean SBP (healthy participants; 100 mg Fed, D 1 2 h): 100.5
- Mean DBP (healthy participants; 100 mg Fed, D 1 4 h): 58.2 mmHg
- Mean SBP (healthy participants; 100 mg Fed, D 1 4 h): 104.2
- Mean DBP (healthy participants; 100 mg Fed, D 1 8 h): 58.8 mmHg
- Mean SBP (healthy participants; 100 mg Fed, D 1 8 h): 100.3
- Mean DBP (healthy participants; 100 mg Fed, D 2 24 h): 69.3 mmHg
- Mean SBP (healthy participants; 100 mg Fed, D 2 24 h): 112.8
- Maximum of mean (±SD) reduction in DBP from baseline (healthy participants; 100 mg fasted (A7)): 12.5 ± 7.06 mmHg
- Maximum of mean (±SD) reduction in SBP from baseline (healthy participants; 100 mg fasted (A7)): 25.8 ± 9.54 mmHg
- Time of maximum mean DBP reduction (healthy participants; 100 mg fasted (A7)): 5 h
- Time of maximum mean SBP reduction (healthy participants; 100 mg fasted (A7)): 8 h
- Maximum of mean (±SD) reduction in DBP from baseline (healthy participants; [6]): 11.8 ± 8.40 mmHg
- Maximum of mean (±SD) reduction in SBP from baseline (healthy participants; [6]): 19.3 ± 17.41 mmHg
- Time of maximum mean DBP reduction (healthy participants; [6]): 6 h
- Time of maximum mean SBP reduction (healthy participants; [6]): 6 h
- Maximum of mean (±SD) reduction in DBP from baseline (healthy participants; 100 mg fed (A7)): 12.7 ± 4.18 mmHg
- Maximum of mean (±SD) reduction in SBP from baseline (healthy participants; 100 mg fed (A7)): 18.5 ± 12.94 mmHg
- Time of maximum mean DBP reduction (healthy participants; 100 mg fed (A7)): 5 h
- Time of maximum mean SBP reduction (healthy participants; 100 mg fed (A7)): 6 h
- Dose-limiting events (healthy participants; Cohort A6, 250 mg single dose, 2 sentinel participants dosed): dose-limiting events observed in a sentinel participant
- Maximum of mean (±SD) reduction in SBP from baseline (healthy participants; SAD 3 mg (A1)): 5.2 ± 3.43 mmHg
- Time of maximum mean SBP reduction (healthy participants; SAD 3 mg (A1)): 2 h
- Mean DBP (healthy participants; SAD 3 mg, D 1 2 h): 68.3 mmHg
- Mean SBP (healthy participants; SAD 3 mg, D 1 2 h): 119.5
- Mean DBP (healthy participants; SAD 3 mg, D 1 4 h): 69.5 mmHg
- Mean SBP (healthy participants; SAD 3 mg, D 1 4 h): 120.3
- Mean DBP (healthy participants; SAD 3 mg, D 1 8 h): 68 mmHg
- Mean SBP (healthy participants; SAD 3 mg, D 1 8 h): 124.5
- Mean DBP (healthy participants; SAD 3 mg, D 2 24 h): 68.7 mmHg
- Mean SBP (healthy participants; SAD 3 mg, D 2 24 h): 118.8
- Maximum of mean (±SD) reduction in DBP from baseline (healthy participants; SAD 10 mg (A2)): 8.8 ± 9.91 mmHg
- Maximum of mean (±SD) reduction in SBP from baseline (healthy participants; SAD 10 mg (A2)): 9.5 ± 16.13 mmHg
- Time of maximum mean DBP reduction (healthy participants; SAD 10 mg (A2)): 6 h
- Time of maximum mean SBP reduction (healthy participants; SAD 10 mg (A2)): 8 h
- Mean DBP (healthy participants; SAD 10 mg, D 1 2 h): 67.7 mmHg
- Mean SBP (healthy participants; SAD 10 mg, D 1 2 h): 112.2
- Mean DBP (healthy participants; SAD 10 mg, D 1 4 h): 68.7 mmHg
- Mean SBP (healthy participants; SAD 10 mg, D 1 4 h): 110.2
- Mean DBP (healthy participants; SAD 10 mg, D 1 8 h): 63 mmHg
- Mean SBP (healthy participants; SAD 10 mg, D 1 8 h): 109.5
- Mean DBP (healthy participants; SAD 10 mg, D 2 24 h): 71.7 mmHg
- Mean SBP (healthy participants; SAD 10 mg, D 2 24 h): 118.5
- Maximum of mean (±SD) reduction in DBP from baseline (healthy participants; SAD 30 mg (A3)): 6.8 ± 1.72 mmHg
- Maximum of mean (±SD) reduction in SBP from baseline (healthy participants; SAD 30 mg (A3)): 11.7 ± 7.61 mmHg
- Time of maximum mean DBP reduction (healthy participants; SAD 30 mg (A3)): 5 h
- Time of maximum mean SBP reduction (healthy participants; SAD 30 mg (A3)): 4 h
- Mean DBP (healthy participants; SAD 30 mg, D 1 2 h): 66.2 mmHg
- Mean SBP (healthy participants; SAD 30 mg, D 1 2 h): 107.5
- Mean DBP (healthy participants; SAD 30 mg, D 1 4 h): 65.2 mmHg
- Mean SBP (healthy participants; SAD 30 mg, D 1 4 h): 106.0
- Mean DBP (healthy participants; SAD 30 mg, D 1 8 h): 65.2 mmHg
- Mean SBP (healthy participants; SAD 30 mg, D 1 8 h): 113.8
- Mean DBP (healthy participants; SAD 30 mg, D 2 24 h): 71 mmHg
- Mean SBP (healthy participants; SAD 30 mg, D 2 24 h): 120.2
- Maximum of mean (±SD) reduction in DBP from baseline (healthy participants; SAD 100 mg (A4)): 9.7 ± 8.64 mmHg
- Maximum of mean (±SD) reduction in SBP from baseline (healthy participants; SAD 100 mg (A4)): 15.5 ± 11.59 mmHg
- Time of maximum mean DBP reduction (healthy participants; SAD 100 mg (A4)): 5 h
- Time of maximum mean SBP reduction (healthy participants; SAD 100 mg (A4)): 2 h
- Mean DBP (healthy participants; SAD 100 mg, D 1 2 h): 59 mmHg
- Mean SBP (healthy participants; SAD 100 mg, D 1 2 h): 101.0
- Mean DBP (healthy participants; SAD 100 mg, D 1 4 h): 58.7 mmHg
- Mean SBP (healthy participants; SAD 100 mg, D 1 4 h): 101.3
- Mean DBP (healthy participants; SAD 100 mg, D 1 8 h): 56.3 mmHg
- Mean SBP (healthy participants; SAD 100 mg, D 1 8 h): 105.0
- Mean DBP (healthy participants; SAD 100 mg, D 2 24 h): 66 mmHg
- Mean SBP (healthy participants; SAD 100 mg, D 2 24 h): 114.2
- Maximum of mean (±SD) reduction in DBP from baseline (healthy participants; SAD 150 mg (A5)): 12.7 ± 5.61 mmHg
- Maximum of mean (±SD) reduction in SBP from baseline (healthy participants; SAD 150 mg (A5)): 16.5 ± 8.41 mmHg
- Time of maximum mean DBP reduction (healthy participants; SAD 150 mg (A5)): 6 h
- Time of maximum mean SBP reduction (healthy participants; SAD 150 mg (A5)): 6 h
- Mean DBP (healthy participants; SAD 150 mg, D 1 2 h): 58.2 mmHg
- Mean SBP (healthy participants; SAD 150 mg, D 1 2 h): 105.0
- Mean DBP (healthy participants; SAD 150 mg, D 1 4 h): 56 mmHg
- Mean SBP (healthy participants; SAD 150 mg, D 1 4 h): 101.5
- Mean DBP (healthy participants; SAD 150 mg, D 1 8 h): 57.8 mmHg
- Mean SBP (healthy participants; SAD 150 mg, D 1 8 h): 107.2
- Mean DBP (healthy participants; SAD 150 mg, D 2 24 h): 66.2 mmHg
- Mean SBP (healthy participants; SAD 150 mg, D 2 24 h): 114.7
- Effect on SBP, DBP and heart rate (healthy participants; SAD cohorts): decreased SBP and DBP dose dependently, reversibly, and mostly asymptomatically with minimal effect on heart rate
- Safety and tolerability (healthy participants; single and multiple dose oral administration to healthy participants): generally safe and well tolerated
- Maximum of mean (±SD) reduction in DBP from baseline (column printed under the head Baseline (mmHg)) ([1]; Japanese MAD 30 BID (C1)): 8.8 ± 5.12 mmHg
- Maximum of mean (±SD) reduction in SBP from baseline ([1]; Japanese MAD 30 BID (C1)): 15.0 ± 6.84 mmHg
- Time of maximum mean SBP reduction ([1]; Japanese MAD 30 BID (C1)): 1-4 Day-h
- Maximum of mean (±SD) reduction in DBP from baseline (column printed under the head Baseline (mmHg)) ([1]; Japanese MAD 60 BID (C2)): 8.2 ± 10.40 mmHg
- Maximum of mean (±SD) reduction in SBP from baseline ([1]; Japanese MAD 60 BID (C2)): 13.0 ± 8.22 mmHg
- Time of maximum mean DBP reduction ([1]; Japanese MAD 60 BID (C2)): 4-16 Day-h
- Time of maximum mean SBP reduction ([1]; Japanese MAD 60 BID (C2)): 2-16 Day-h
- Maximum of mean (±SD) reduction in DBP from baseline (column printed under the head Baseline (mmHg)) ([1]; Japanese MAD 90 BID (C2)): 8.0 ± 8.22 mmHg
- Maximum of mean (±SD) reduction in SBP from baseline ([1]; Japanese MAD 90 BID (C2)): 11.8 ± 8.47 mmHg
- Time of maximum mean DBP reduction ([1]; Japanese MAD 90 BID (C2)): 1-6 Day-h
- Time of maximum mean SBP reduction ([1]; Japanese MAD 90 BID (C2)): 1-6 Day-h
- Dose dependence of mean BP reduction ([1]; Japanese MAD cohorts): no clear Compound A dose-dependent BP reduction trend
